Assay results: ChEMBL document CHEMBL5528031, “Synthesis and antitumor activity of cyclopentane-fused anthraquinone derivatives” (Eur J Med Chem, 2024)

Tested on: not listed separately
Experiment: Antiproliferative activity against human DND41 cells assessed as inhibition of cell growth incubated for 72 hrs by MTT assay
Assay type: functional, cell-based
Conditions: DND41, 72 h

Compound	IC50 [µM]
O=C1c2ccccc2C(=O)c2c(O)c3c(c(O)c21)CC(C(=O)NC1CNC1)C3	3.1
O=C1c2ccccc2C(=O)c2c(O)c3c(c(O)c21)CC(C(=O)NC1CCNCC1)C3	2
NCCCNC(=O)C1Cc2c(O)c3c(c(O)c2C1)C(=O)c1ccccc1C3=O	43
O=C1c2ccccc2C(=O)c2c(O)c3c(c(O)c21)CC(C(=O)N[C@@H]1CCNC1)C3	2.2
O=C1c2ccccc2C(=O)c2c(O)c3c(c(O)c21)CC(C(=O)NC1CCCNC1)C3 (configuration not stated)	1.5
N[C@@H]1CCN(C(=O)C2Cc3c(O)c4c(c(O)c3C2)C(=O)c2ccccc2C4=O)C1	2.3
N[C@@H]1CN(C(=O)C2Cc3c(O)c4c(c(O)c3C2)C(=O)c2ccccc2C4=O)C[C@H]1N	2.3
O=C1c2ccccc2C(=O)c2c(O)c3c(c(O)c21)CC(C(=O)N[C@H]1CCNC1)C3	1.9
O=C1c2ccccc2C(=O)c2c(O)c3c(c(O)c21)CC(C(=O)NC1CN2CCC1CC2)C3 (configuration not stated)	2.2

Tested on: LN-229
Experiment: Antiproliferative activity against human LN-229 cells assessed as inhibition of cell growth incubated for 72 hrs by MTT assay
Assay type: functional, cell-based
Conditions: LN-229, 72 h

Compound	IC50 [µM]
O=C1c2ccccc2C(=O)c2c(O)c3c(c(O)c21)CC(C(=O)NC1CNC1)C3	2.9
O=C1c2ccccc2C(=O)c2c(O)c3c(c(O)c21)CC(C(=O)NC1CCNCC1)C3	1.4
NCCCNC(=O)C1Cc2c(O)c3c(c(O)c2C1)C(=O)c1ccccc1C3=O	3.9
O=C1c2ccccc2C(=O)c2c(O)c3c(c(O)c21)CC(C(=O)N[C@@H]1CCNC1)C3	5.8
O=C1c2ccccc2C(=O)c2c(O)c3c(c(O)c21)CC(C(=O)NC1CCCNC1)C3 (configuration not stated)	3.5
N[C@@H]1CCN(C(=O)C2Cc3c(O)c4c(c(O)c3C2)C(=O)c2ccccc2C4=O)C1	2
N[C@@H]1CN(C(=O)C2Cc3c(O)c4c(c(O)c3C2)C(=O)c2ccccc2C4=O)C[C@H]1N	3.9
O=C1c2ccccc2C(=O)c2c(O)c3c(c(O)c21)CC(C(=O)N[C@H]1CCNC1)C3	5.1
O=C1c2ccccc2C(=O)c2c(O)c3c(c(O)c21)CC(C(=O)NC1CN2CCC1CC2)C3 (configuration not stated)	1.9

Tested on: HCT-116
Experiment: Antiproliferative activity against human HCT-116 cells assessed as inhibition of cell growth incubated for 72 hrs by MTT assay
Assay type: functional, cell-based
Conditions: HCT-116, 72 h

Compound	IC50 [µM]
O=C1c2ccccc2C(=O)c2c(O)c3c(c(O)c21)CC(C(=O)NC1CNC1)C3	1.4
O=C1c2ccccc2C(=O)c2c(O)c3c(c(O)c21)CC(C(=O)NC1CCNCC1)C3	1
NCCCNC(=O)C1Cc2c(O)c3c(c(O)c2C1)C(=O)c1ccccc1C3=O	2.1
O=C1c2ccccc2C(=O)c2c(O)c3c(c(O)c21)CC(C(=O)N[C@@H]1CCNC1)C3	1.6
O=C1c2ccccc2C(=O)c2c(O)c3c(c(O)c21)CC(C(=O)NC1CCCNC1)C3 (configuration not stated)	3.2
N[C@@H]1CCN(C(=O)C2Cc3c(O)c4c(c(O)c3C2)C(=O)c2ccccc2C4=O)C1	1.1
N[C@@H]1CN(C(=O)C2Cc3c(O)c4c(c(O)c3C2)C(=O)c2ccccc2C4=O)C[C@H]1N	2
O=C1c2ccccc2C(=O)c2c(O)c3c(c(O)c21)CC(C(=O)N[C@H]1CCNC1)C3	1.5
O=C1c2ccccc2C(=O)c2c(O)c3c(c(O)c21)CC(C(=O)NC1CN2CCC1CC2)C3 (configuration not stated)	1.5

Tested on: NCI-H1975
Experiment: Antiproliferative activity against human NCI-H1975 cells assessed as inhibition of cell growth incubated for 72 hrs by MTT assay
Assay type: functional, cell-based
Conditions: NCI-H1975, 72 h

Compound	IC50 [µM]
O=C1c2ccccc2C(=O)c2c(O)c3c(c(O)c21)CC(C(=O)NC1CNC1)C3	2.7
O=C1c2ccccc2C(=O)c2c(O)c3c(c(O)c21)CC(C(=O)NC1CCNCC1)C3	1.8
NCCCNC(=O)C1Cc2c(O)c3c(c(O)c2C1)C(=O)c1ccccc1C3=O	3.3
O=C1c2ccccc2C(=O)c2c(O)c3c(c(O)c21)CC(C(=O)N[C@@H]1CCNC1)C3	10.1
O=C1c2ccccc2C(=O)c2c(O)c3c(c(O)c21)CC(C(=O)NC1CCCNC1)C3 (configuration not stated)	4.6
N[C@@H]1CCN(C(=O)C2Cc3c(O)c4c(c(O)c3C2)C(=O)c2ccccc2C4=O)C1	1.2
N[C@@H]1CN(C(=O)C2Cc3c(O)c4c(c(O)c3C2)C(=O)c2ccccc2C4=O)C[C@H]1N	3.8
O=C1c2ccccc2C(=O)c2c(O)c3c(c(O)c21)CC(C(=O)N[C@H]1CCNC1)C3	2.3
O=C1c2ccccc2C(=O)c2c(O)c3c(c(O)c21)CC(C(=O)NC1CN2CCC1CC2)C3 (configuration not stated)	6.2

Tested on: CAPAN-1
Experiment: Antiproliferative activity against human CAPAN-1 cells assessed as inhibition of cell growth incubated for 72 hrs by MTT assay
Assay type: functional, cell-based
Conditions: CAPAN-1, 72 h

Compound	IC50 [µM]
O=C1c2ccccc2C(=O)c2c(O)c3c(c(O)c21)CC(C(=O)NC1CNC1)C3	1.5
O=C1c2ccccc2C(=O)c2c(O)c3c(c(O)c21)CC(C(=O)NC1CCNCC1)C3	1.7
NCCCNC(=O)C1Cc2c(O)c3c(c(O)c2C1)C(=O)c1ccccc1C3=O	3.6
O=C1c2ccccc2C(=O)c2c(O)c3c(c(O)c21)CC(C(=O)N[C@@H]1CCNC1)C3	1.6
O=C1c2ccccc2C(=O)c2c(O)c3c(c(O)c21)CC(C(=O)NC1CCCNC1)C3 (configuration not stated)	1
N[C@@H]1CCN(C(=O)C2Cc3c(O)c4c(c(O)c3C2)C(=O)c2ccccc2C4=O)C1	1.1
N[C@@H]1CN(C(=O)C2Cc3c(O)c4c(c(O)c3C2)C(=O)c2ccccc2C4=O)C[C@H]1N	1.7
O=C1c2ccccc2C(=O)c2c(O)c3c(c(O)c21)CC(C(=O)N[C@H]1CCNC1)C3	1.5
O=C1c2ccccc2C(=O)c2c(O)c3c(c(O)c21)CC(C(=O)NC1CN2CCC1CC2)C3 (configuration not stated)	1.8

Tested on: not listed separately
Experiment: Cytotoxicity against hFB-hTERT6 cells assessed as inhibition of cell growth incubated for 72 hrs by MTT assay
Assay type: toxicity, cell-based
Conditions: human

Compound	IC50 at 72 h [µM]
O=C1c2ccccc2C(=O)c2c(O)c3c(c(O)c21)CC(C(=O)NC1CNC1)C3	4.3
O=C1c2ccccc2C(=O)c2c(O)c3c(c(O)c21)CC(C(=O)NC1CCNCC1)C3	4.5
NCCCNC(=O)C1Cc2c(O)c3c(c(O)c2C1)C(=O)c1ccccc1C3=O	6.5
O=C1c2ccccc2C(=O)c2c(O)c3c(c(O)c21)CC(C(=O)N[C@@H]1CCNC1)C3	4.2
O=C1c2ccccc2C(=O)c2c(O)c3c(c(O)c21)CC(C(=O)NC1CCCNC1)C3 (configuration not stated)	4.2
N[C@@H]1CCN(C(=O)C2Cc3c(O)c4c(c(O)c3C2)C(=O)c2ccccc2C4=O)C1	4.7
N[C@@H]1CN(C(=O)C2Cc3c(O)c4c(c(O)c3C2)C(=O)c2ccccc2C4=O)C[C@H]1N	23
O=C1c2ccccc2C(=O)c2c(O)c3c(c(O)c21)CC(C(=O)N[C@H]1CCNC1)C3	4.2
O=C1c2ccccc2C(=O)c2c(O)c3c(c(O)c21)CC(C(=O)NC1CN2CCC1CC2)C3 (configuration not stated)	2.4

Tested on: Calf thymus DNA
Experiment: Binding affinity to calf thymus DNA assessed as binding constant at 10 uM by fluorescence spectroscopy analysis
Assay type: nucleic-acid assay
Conditions: Bos taurus

Compound	Kb
N[C@@H]1CN(C(=O)C2Cc3c(O)c4c(c(O)c3C2)C(=O)c2ccccc2C4=O)C[C@H]1N	0.31 10^6/M

Tested on: Z-138
Experiment: Antiproliferative activity against human Z138 cells assessed as inhibition of cell growth incubated for 72 hrs by MTT assay
Assay type: functional, cell-based
Conditions: Z-138, 72 h

Compound	IC50 [µM]
O=C1c2ccccc2C(=O)c2c(O)c3c(c(O)c21)CC(C(=O)NC1CNC1)C3	2.8
O=C1c2ccccc2C(=O)c2c(O)c3c(c(O)c21)CC(C(=O)NC1CCNCC1)C3	3.1
NCCCNC(=O)C1Cc2c(O)c3c(c(O)c2C1)C(=O)c1ccccc1C3=O	> 50
O=C1c2ccccc2C(=O)c2c(O)c3c(c(O)c21)CC(C(=O)N[C@@H]1CCNC1)C3	2.3
O=C1c2ccccc2C(=O)c2c(O)c3c(c(O)c21)CC(C(=O)NC1CCCNC1)C3 (configuration not stated)	2.2
N[C@@H]1CCN(C(=O)C2Cc3c(O)c4c(c(O)c3C2)C(=O)c2ccccc2C4=O)C1	2.5
N[C@@H]1CN(C(=O)C2Cc3c(O)c4c(c(O)c3C2)C(=O)c2ccccc2C4=O)C[C@H]1N	2.6
O=C1c2ccccc2C(=O)c2c(O)c3c(c(O)c21)CC(C(=O)N[C@H]1CCNC1)C3	1.8
O=C1c2ccccc2C(=O)c2c(O)c3c(c(O)c21)CC(C(=O)NC1CN2CCC1CC2)C3 (configuration not stated)	2.7

Tested on: HL-60
Experiment: Antiproliferative activity against human HL-60 cells assessed as inhibition of cell growth incubated for 72 hrs by MTT assay
Assay type: functional, cell-based
Conditions: HL-60, 72 h

Compound	IC50 [µM]
O=C1c2ccccc2C(=O)c2c(O)c3c(c(O)c21)CC(C(=O)NC1CNC1)C3	2.7
O=C1c2ccccc2C(=O)c2c(O)c3c(c(O)c21)CC(C(=O)NC1CCNCC1)C3	1.5
NCCCNC(=O)C1Cc2c(O)c3c(c(O)c2C1)C(=O)c1ccccc1C3=O	45
O=C1c2ccccc2C(=O)c2c(O)c3c(c(O)c21)CC(C(=O)N[C@@H]1CCNC1)C3	2.3
O=C1c2ccccc2C(=O)c2c(O)c3c(c(O)c21)CC(C(=O)NC1CCCNC1)C3 (configuration not stated)	1.9
N[C@@H]1CCN(C(=O)C2Cc3c(O)c4c(c(O)c3C2)C(=O)c2ccccc2C4=O)C1	2
N[C@@H]1CN(C(=O)C2Cc3c(O)c4c(c(O)c3C2)C(=O)c2ccccc2C4=O)C[C@H]1N	2.8
O=C1c2ccccc2C(=O)c2c(O)c3c(c(O)c21)CC(C(=O)N[C@H]1CCNC1)C3	2.3
O=C1c2ccccc2C(=O)c2c(O)c3c(c(O)c21)CC(C(=O)NC1CN2CCC1CC2)C3 (configuration not stated)	2.1

Tested on: not listed separately
Experiment: Antiproliferative activity against multidrug resistant human K562/4 cells expressing P-gp assessed as inhibition of cell growth incubated for 72 hrs by MTT assay
Assay type: functional, cell-based
Conditions: K562/4, 72 h

Compound	IC50 [µM]
O=C1c2ccccc2C(=O)c2c(O)c3c(c(O)c21)CC(C(=O)NC1CNC1)C3	33
O=C1c2ccccc2C(=O)c2c(O)c3c(c(O)c21)CC(C(=O)NC1CCNCC1)C3	4.5
NCCCNC(=O)C1Cc2c(O)c3c(c(O)c2C1)C(=O)c1ccccc1C3=O	7.8
O=C1c2ccccc2C(=O)c2c(O)c3c(c(O)c21)CC(C(=O)N[C@@H]1CCNC1)C3	9.2
O=C1c2ccccc2C(=O)c2c(O)c3c(c(O)c21)CC(C(=O)NC1CCCNC1)C3 (configuration not stated)	3.2
N[C@@H]1CCN(C(=O)C2Cc3c(O)c4c(c(O)c3C2)C(=O)c2ccccc2C4=O)C1	2.1
N[C@@H]1CN(C(=O)C2Cc3c(O)c4c(c(O)c3C2)C(=O)c2ccccc2C4=O)C[C@H]1N	35
O=C1c2ccccc2C(=O)c2c(O)c3c(c(O)c21)CC(C(=O)N[C@H]1CCNC1)C3	4.8
O=C1c2ccccc2C(=O)c2c(O)c3c(c(O)c21)CC(C(=O)NC1CN2CCC1CC2)C3 (configuration not stated)	4.1

Tested on: K562
Experiment: Antiproliferative activity against human K562 cells assessed as inhibition of cell growth incubated for 72 hrs by MTT assay
Assay type: functional, cell-based
Conditions: K562, 72 h

Compound	IC50 [µM]
O=C1c2ccccc2C(=O)c2c(O)c3c(c(O)c21)CC(C(=O)NC1CNC1)C3	2.7
O=C1c2ccccc2C(=O)c2c(O)c3c(c(O)c21)CC(C(=O)NC1CCNCC1)C3	1.6
NCCCNC(=O)C1Cc2c(O)c3c(c(O)c2C1)C(=O)c1ccccc1C3=O	3.7
O=C1c2ccccc2C(=O)c2c(O)c3c(c(O)c21)CC(C(=O)N[C@@H]1CCNC1)C3	2.1
O=C1c2ccccc2C(=O)c2c(O)c3c(c(O)c21)CC(C(=O)NC1CCCNC1)C3 (configuration not stated)	1.7
N[C@@H]1CCN(C(=O)C2Cc3c(O)c4c(c(O)c3C2)C(=O)c2ccccc2C4=O)C1	2
N[C@@H]1CN(C(=O)C2Cc3c(O)c4c(c(O)c3C2)C(=O)c2ccccc2C4=O)C[C@H]1N	2.8
O=C1c2ccccc2C(=O)c2c(O)c3c(c(O)c21)CC(C(=O)N[C@H]1CCNC1)C3	2.4
O=C1c2ccccc2C(=O)c2c(O)c3c(c(O)c21)CC(C(=O)NC1CN2CCC1CC2)C3 (configuration not stated)	1.6

Tested on: Calf thymus DNA
Experiment: Binding affinity to calf thymus DNA assessed as dissociation constant at 10 uM by fluorescence spectroscopy analysis
Assay type: nucleic-acid assay, Bos taurus
Conditions: not given

Compound	Kd [µM]
N[C@@H]1CN(C(=O)C2Cc3c(O)c4c(c(O)c3C2)C(=O)c2ccccc2C4=O)C[C@H]1N	3.2
